We go through 5 compounds from patent publication US4419123A, “Herbicidal 4-trifluoromethyl-3'-carbon-substituted-4'-substituted diphenyl ethers” (Rohm and Haas Company, priority 1981, dated 1983).

The nature of data set [1]: Preemergence herbicidal activity (% control) against monocot weeds. Format: in vivo. As to conditions: pre-emergence, 336 h, average, about two weeks after application, read-out: Herbicidal activity (% control), preemergence, monocots; for activity at 2241.7 g/ha: 2 lb./A.; for activity at 4483.4 g/ha: 4 lb./A. From the text: (§1) barnyardgrass (Echinochloa crusgalli) crabgrass (Digitaria spp.) nutsedge (Cyperus esculentus)
(§2) At 2 and 4 pounds per acre:
(§3) **Bermudagrass (Cynodon dactylon)
(§4) *downy brome (Bromus tectorum) foxtail (Setaria faberii)
(§5) Johnsongrass (Sorghum halepense) […]
(§6) quackgrass (Agropyron repens)
(§7) *ryegrass (Lolium perenne)
(§8) *wild oats (Avena factua)
(§9) *yellow millet (Panicum miliaceum)
(§10) The following test procedure is employed.

A short description of data set [2]: Postemergence herbicidal activity (% control) against monocot weeds. The format is in vivo. As to conditions: post-emergence, 336 h, average, about two weeks after application, read-out: Herbicidal activity (% control), postemergence, monocots; for activity at 2241.7 g/ha: 2 lb./A.; for activity at 4483.4 g/ha: 4 lb./A.
Source text: as §1, §2, §3, §4, §5, §6, §7, §8, §9, §10

In data set [3] the test system is corn. Briefly: Crop tolerance (selective herbicidal activity), corn. Format: in vivo. How it is done:
as §10
(§11) Following the general test procedure of Example 37, diphenyl ethers are evaluated for significant tolerance (as shown by 50% or less kill of the test crop at levels of application which give more than 50% kill of many or all of the weeds of Example 73) towards some or all of the following common agronomic crops (not all compounds tested against all crops): alfalfa, snapbeans, corn, cotton, cucumbers, peanuts, rape, rice, safflower, soybeans, tomatoes, and wheat.

Data set [4] relates to peanuts. Kind of data set: Crop tolerance (selective herbicidal activity), peanuts. Format: in vivo. As for the experimental part:
as §10, §11

Data set [5] concerns rice. Briefly: Crop tolerance (selective herbicidal activity), rice. The format is in vivo. How it is done: as §10, §11
Data set [6] relates to soybeans. Kind of data set: Crop tolerance (selective herbicidal activity), soybeans. The format is in vivo. As to conditions: preemergence applications. How it is done: as §10, §11
Data set [7] deals with wheat. Kind of data set: Crop tolerance (selective herbicidal activity), wheat. The format is in vivo. How it is done:
as §10, §11

Data set [8] in a line: Preemergence herbicidal activity (% control) against dicot weeds. As to conditions: pre-emergence, 336 h; for activity at 2241.7 g/ha: read-out: Herbicidal activity (% control), preemergence, dicots, 2 lb./A., average, about two weeks after application; for activity at 4483.4 g/ha: read-out: Herbicidal activity (% control), preemergence, dicots, 4 lb./A., average, about two weeks after application.

Data set [9] in a line: Postemergence herbicidal activity (% control) against dicot weeds. The note with it: post-emergence, 336 h; for activity at 2241.7 g/ha: read-out: Herbicidal activity (% control), postemergence, dicots, 2 lb./A., average, about two weeks after application; for activity at 4483.4 g/ha: read-out: Herbicidal activity (% control), postemergence, dicots, 4 lb./A., average, about two weeks after application.

Turning to `CCN(CC)c1cc(Oc2ccc(C(F)(F)F)cc2Cl)ccc1[N+](=O)[O-]` [Example 21, 2-Chloro-α,α,α-trifluoro-p-tolyl-3-diethylamino-4-nitrophenyl ether], the activity at 2241.7 g/ha in data set [1] was found to be 79%; in data set [2], 90%; in [8], 90%; in data set [9] it was 94%. Further, the activity at 4483.4 g/ha amounted to 91% in data set [1], 74% in [2], 99% in data set [8] and 96% in data set [9]. For the same compound, the Tolerance to corn result in data set [3] (postemergence applications) and in [3] (preemergence applications) was “Tolerance (significant tolerance (as shown by 50% or less kill of the test crop at levels of application which give more than 50% kill of many or all of the weeds of Example 73))” throughout. The Tolerance to peanuts entry in data set [4] (preemergence applications) is “Tolerance (significant tolerance (as shown by 50% or less kill of the test crop at levels of application which give more than 50% kill of many or all of the weeds of Example 73))”. Besides, in [5] (preemergence applications), the Tolerance to rice entry was “Tolerance (significant tolerance (as shown by 50% or less kill of the test crop at levels of application which give more than 50% kill of many or all of the weeds of Example 73))”. Moreover, the Tolerance to soybeans entry in [6] is reported as “Tolerance (significant tolerance (as shown by 50% or less kill of the test crop at levels of application which give more than 50% kill of many or all of the weeds of Example 73))”. Further, the Tolerance to wheat result in data set [7] (postemergence applications) is “Tolerance (significant tolerance (as shown by 50% or less kill of the test crop at levels of application which give more than 50% kill of many or all of the weeds of Example 73))”.

`CCNc1cc(Oc2ccc(C(F)(F)F)cc2Cl)ccc1[N+](=O)[O-]` [Example 19, 2-Chloro-α,α,α-trifluoro-p-tolyl-3-ethylamino-4-nitrophenyl ether]: the activity at 2241.7 g/ha in data set [1] was found to be 77%; in [2], 94%; in [8], 91%; in [9], 97%. Further, the activity at 4483.4 g/ha came to 91% in [1], 84% in [2], 96% in data set [8] and 98% in [9]. The Tolerance to corn entry in [3] (postemergence applications) and in data set [3] (preemergence applications) was “Tolerance (significant tolerance (as shown by 50% or less kill of the test crop at levels of application which give more than 50% kill of many or all of the weeds of Example 73))” each time. In addition, the Tolerance to peanuts result in data set [4] (preemergence applications) was “Tolerance (significant tolerance (as shown by 50% or less kill of the test crop at levels of application which give more than 50% kill of many or all of the weeds of Example 73))”. The Tolerance to rice result in data set [5] (preemergence applications) is listed as “Tolerance (significant tolerance (as shown by 50% or less kill of the test crop at levels of application which give more than 50% kill of many or all of the weeds of Example 73))”. Besides, in data set [6], the Tolerance to soybeans result is “Tolerance (significant tolerance (as shown by 50% or less kill of the test crop at levels of application which give more than 50% kill of many or all of the weeds of Example 73))”. For the same compound, the Tolerance to wheat entry in data set [7] (preemergence applications) is given as “Tolerance (significant tolerance (as shown by 50% or less kill of the test crop at levels of application which give more than 50% kill of many or all of the weeds of Example 73))”.

Consider `COC(=O)C(C)Oc1cc(Oc2ccc(C(F)(F)F)cc2Cl)ccc1[N+](=O)[O-]` (stereo not shown) [Example 50], for which the activity at 2241.7 g/ha is 98% in data set [1], 100% in data set [2] and 100% in [8]. The activity at 4483.4 g/ha amounted to 90% in data set [1], 97% in data set [2], 83% in [8] and 100% in [9]. Further, the Tolerance to peanuts entry in [4] (preemergence applications) is “Tolerance (significant tolerance (as shown by 50% or less kill of the test crop at levels of application which give more than 50% kill of many or all of the weeds of Example 73))”. In addition, the Tolerance to soybeans entry in data set [6] was “Tolerance (significant tolerance (as shown by 50% or less kill of the test crop at levels of application which give more than 50% kill of many or all of the weeds of Example 73))”. Moreover, in data set [7] (preemergence applications), the Tolerance to wheat result is “Tolerance (significant tolerance (as shown by 50% or less kill of the test crop at levels of application which give more than 50% kill of many or all of the weeds of Example 73))”.

Take `CCOc1cc(Oc2c(Cl)cc(C(F)(F)F)cc2Cl)ccc1[N+](=O)[O-]` [Example 56, 2,6-Dichloro-α,α,α-trifluoro-p-tolyl-3-ethoxy-4-nitrophenyl ether]: the values for the activity at 2241.7 g/ha in [1], in data set [2] and in data set [9] were 100%, 100% and 99%, respectively. In addition, the activity at 4483.4 g/ha in [1] came out at 91%; in data set [2], 99%; in data set [8], 83%; in data set [9] it was 100%. Also, the Tolerance to corn entry in data set [3] (postemergence applications) is “Tolerance (significant tolerance (as shown by 50% or less kill of the test crop at levels of application which give more than 50% kill of many or all of the weeds of Example 73))”. In addition, in data set [4] (preemergence applications), the Tolerance to peanuts result is on record as “Tolerance (significant tolerance (as shown by 50% or less kill of the test crop at levels of application which give more than 50% kill of many or all of the weeds of Example 73))”. Also, the Tolerance to wheat entry in data set [7] (preemergence applications) was “Tolerance (significant tolerance (as shown by 50% or less kill of the test crop at levels of application which give more than 50% kill of many or all of the weeds of Example 73))”.

`O=C(O)c1cc(Oc2ccc(C(F)(F)F)cc2Cl)ccc1[N+](=O)[O-]` [Example 48, 2-Chloro-α,α,α-trifluoro-p-tolyl-3-carboxy-4-nitrophenylether]: the activity at 2241.7 g/ha came out at 100% in data set [1], 84% in data set [2], 100% in [8] and 97% in data set [9]. The activity at 4483.4 g/ha came out at 99% in [1], 75% in data set [2], 97% in [8] and 100% in [9]. Besides, the Tolerance to peanuts entry in data set [4] (postemergence applications) and in data set [4] (preemergence applications) was “Tolerance (significant tolerance (as shown by 50% or less kill of the test crop at levels of application which give more than 50% kill of many or all of the weeds of Example 73))” throughout. For the same compound, the Tolerance to rice entry in data set [5] (postemergence applications or applications on transplanted rice) is reported as “Tolerance (significant tolerance (as shown by 50% or less kill of the test crop at levels of application which give more than 50% kill of many or all of the weeds of Example 73))”. Further, in [6], the Tolerance to soybeans entry is given as “Tolerance (significant tolerance (as shown by 50% or less kill of the test crop at levels of application which give more than 50% kill of many or all of the weeds of Example 73))”. In addition, in data set [7] (postemergence applications), the Tolerance to wheat entry is given as “Tolerance (significant tolerance (as shown by 50% or less kill of the test crop at levels of application which give more than 50% kill of many or all of the weeds of Example 73))”.
